Our source for the chromatographic logP values is patent US9167821B2 (priority 2009, dated 2015).

In general, chromatographic logP refers to lipophilicity estimated from chromatographic retention. A lower chromatographic logP goes with a more hydrophilic compound.

Counter-ions that a name gives are not always drawn.

The series can be described thus: physchem.

As to `O=Cc1ccccc1C1CC(c2csc(C3CCNCC3)n2)=NO1` (stereo not drawn) [XII-3, 2-{3-[2-(Piperidin-4-yl)-1,3-thiazol-4-yl]-4,5-dihydro-1,2-oxazol-5-yl}benzaldehyde hydrochloride], under “pH 2.7, log P (HCOOH)”, the chromatographic logP was found to be 0.76.

With `CC(C)(C)OC(=O)N1CCC(c2nc(C3=NOC(c4ccccc4[N+](=O)[O-])C3)cs2)CC1` (stereo not drawn) [X-a-6, tert-Butyl 4-{4-[5-(2-nitrophenyl)-4,5-dihydro-1,2-oxazol-3-yl]-1,3-thiazol-2-yl}piperidine-1-carboxylate], the chromatographic logP (pH 2.7, log P (pH2.7)) was determined as 4.01.

With `CC(=O)c1ccccc1C1CC(c2csc(C3CCNCC3)n2)=NO1` (stereo not drawn) [XII-2, 1-(2-{3-[2-(Piperidin-4-yl)-1,3-thiazol-4-yl]-4,5-dihydro-1,2-oxazol-5-yl}phenyl)ethanone hydrochloride], under “pH 2.7, log P (HCOOH)”, the chromatographic logP worked out at 0.96.

Where the note is “pH 2.7, logp [b]”, `O=Cc1ccccc1-c1cc(-c2csc(C3CCN(C(=O)Cn4nc(C(F)F)cc4C(F)F)CC3)n2)no1` [I-31, 2-{3-[2-(1-{[3,5-Bis(difluoromethyl)-1H-pyrazol-1-yl]acetyl}piperidin-4-yl)-1,3-thiazol-4-yl]-1,2-oxazol-5-yl}benzaldehyde] registered a chromatographic logP of 3.25.

`O=C(Oc1ccccc1C1CC(c2csc(C3CCN(C(=O)Cn4nc(C(F)F)cc4C(F)F)CC3)n2)=NO1)C1CCCCC1` (stereo not drawn) [I-32, 2-{3-[2-(1-{[3,5-bis(difluoromethyl)-1H-pyrazol-1-yl]acetyl}piperidin-4-yl)-1,3-thiazol-4-yl]-4,5-dihydro-1,2-oxazol-5-yl}phenyl cyclohexanecarboxylate]: the chromatographic logP turned out to be 4.27 (pH 2.3) and 4.19 (pH 7.8, logp [c]).

As to `COCCOc1cccc(C2CC(c3csc(C4CCN(C(=O)Cn5nc(C(F)F)cc5C(F)F)CC4)n3)=NO2)c1` (stereo not drawn) [I-28, 2-[3,5-Bis(difluoromethyl)-1H-pyrazol-1-yl]-1-[4-(4-{5-[3-(2-methoxyethoxy)phenyl]-4,5-dihydro-1,2-oxazol-3-yl}-1,3-thiazol-2-yl)piperidin-1-yl]ethanone], the chromatographic logP worked out at 3.03 (pH 2.7, logp [b]) and 3.04 (pH 7.8, logp [c]).

For `C#CCOc1cccc(Cl)c1C1CC(c2csc(C3CCN(C(=O)Cn4nc(C(F)F)cc4C(F)F)CC3)n2)=NO1` (stereo not drawn) [I-49, 2-[3,5-bis(difluoromethyl)-1H-pyrazol-1-yl]-1-[4-(4-{5-[2-chloro-6-(prop-2-yn-1-yloxy)phenyl]-4,5-dihydro-1,2-oxazol-3-yl}-1,3-thiazol-2-yl)piperidin-1-yl]ethanone], the chromatographic logP runs as follows: (pH 2.7, logp [b]) 3.5; (pH 7.8, logp [c]) 3.34.

With `CS(=O)(=O)Nc1ccccc1C1CC(c2csc(C3CCN(C(=O)Cn4nc(C(F)F)cc4C(F)F)CC3)n2)=NO1` (stereo not drawn) [I-37, N-(2-{3-[2-(1-{[3,5-Bis(difluoromethyl)-1H-pyrazol-1-yl]acetyl}piperidin-4-yl)-1,3-thiazol-4-yl]-4,5-dihydro-1,2-oxazol-5-yl}phenyl)methanesulphonamide], under “pH 2.7, logp [b]”, the chromatographic logP came to 2.51.

Compound `O=C(Cn1nc(C(F)F)cc1C(F)F)N1CCC(c2nc(C3=NOC(c4ccccc4CO)C3)cs2)CC1` (stereo not drawn) [I-45, 2-[3,5-Bis(difluoromethyl)-1H-pyrazol-1-yl]-1-[4-(4-{5-[2-(hydroxymethyl)phenyl]-4,5-dihydro-1,2-oxazol-3-yl}-1,3-thiazol-2-yl)piperidin-1-yl]ethanone] returned a chromatographic logP (pH 2.7, logp [b]) of 2.45.

For the compound `CC(C)(C)OC(=O)N1CCC(c2nc(C3=NOC(c4c(F)cccc4C=O)C3)cs2)CC1` (stereo not drawn) [X-a-13, tert-Butyl 4-{4-[5-(2-fluoro-6-formylphenyl)-4,5-dihydro-1,2-oxazol-3-yl]-1,3-thiazol-2-yl}piperidine-1-carboxylate], the chromatographic logP (pH 2.7, log P (HCOOH)) turned out to be 3.62.

Consider `COC(=O)c1ccccc1C1CC(c2csc(C3CCN(C(=O)OC(C)(C)C)CC3)n2)=NO1` (stereo not drawn) [X-a-8, tert-butyl 4-(4-{5-[2-(methoxycarbonyl)phenyl]-4,5-dihydro-1,2-oxazol-3-yl}-1,3-thiazol-2-yl)piperidine-1-carboxylate], for which the chromatographic logP (pH 2.7, log P (HCOOH)) is 4.14.

For the compound `COC(=O)c1ccccc1C1CC(c2csc(C3CCN(C(=O)Cn4nc(C(F)F)cc4C(F)F)CC3)n2)=NO1` (stereo not drawn) [I-43, Methyl 2-{3-[2-(1-{[3,5-bis(difluoromethyl)-1H-pyrazol-1-yl]acetyl}piperidin-4-yl)-1,3-thiazol-4-yl]-4,5-dihydro-1,2-oxazol-5-yl}benzoate], the chromatographic logP (pH 2.7, logp [b]) was found to be 3.32.

Take `CC(C)(C)OC(=O)N1CCC(c2nc(C3=NOC(c4ccccc4NS(C)(=O)=O)C3)cs2)CC1` (stereo not drawn) [X-a-4, tert-Butyl 4-[4-(5-{2-[(methylsulphonyl)amino]phenyl}-4,5-dihydro-1,2-oxazol-3-yl)-1,3-thiazol-2-yl]piperidine-1-carboxylate]: the chromatographic logP (pH 2.7, log P (HCOOH)) was determined as 3.

In the case of `CC(C)(C)OC(=O)N1CCC(c2nc(-c3cc(-c4ccccc4C=O)on3)cs2)CC1` [X-b-1, tert-butyl 4-{4-[5-(2-formylphenyl)-1,2-oxazol-3-yl]-1,3-thiazol-2-yl}piperidine-1-carboxylate], for the setting “pH 2.7, log P (HCOOH)”, the chromatographic logP is 4.1.

Compound `CCSCc1ccccc1C1CC(c2csc(C3CCN(C(=O)Cn4nc(C(F)F)cc4C(F)F)CC3)n2)=NO1` (stereo not drawn) [I-12, 2-[3,5-Bis(difluoromethyl)-1H-pyrazol-1-yl]-1-{4-[4-(5-{2-[(ethylsulphanyl)methyl]phenyl}-4,5-dihydro-1,2-oxazol-3-yl)-1,3-thiazol-2-yl]piperidin-1-yl}ethanone] returned a chromatographic logP (pH 2.7, logp [b]) of 3.9.

With `O=Cc1cccc(F)c1C1CC(c2csc(C3CCN(C(=O)Cn4nc(C(F)F)cc4C(F)F)CC3)n2)=NO1` (stereo not drawn) [I-17, 2-{3-[2-(1-{[3,5-Bis(difluoromethyl)-1H-pyrazol-1-yl]acetyl}piperidin-4-yl)-1,3-thiazol-4-yl]-4,5-dihydro-1,2-oxazol-5-yl}-3-fluorobenzaldehyde], the chromatographic logP reads like this: (pH 2.7, logp [b]) 2.92; (pH 7.8, logp [c]) 2.82.

The compound `O=Cc1csc(C2CCN(C(=O)Cn3nc(C(F)F)cc3C(F)F)CC2)n1` [VI-2, 2-(1-{[3,5-Bis(difluoromethyl)-1H-pyrazol-1-yl]acetyl}piperidin-4-yl)-1,3-thiazole-4-carbaldehyde] showed a chromatographic logP (pH 2.7, log P (HCOOH)) of 1.93.

For the compound `O=[N+]([O-])c1ccccc1C1CC(c2csc(C3CCNCC3)n2)=NO1` (stereo not drawn) [XII-6, 4-{4-[5-(2-Nitrophenyl)-4,5-dihydro-1,2-oxazol-3-yl]-1,3-thiazol-2-yl}piperidinium chloride], under “pH 2.7, log P (pH2.7)”, the chromatographic logP was found to be 1.09.

Consider `O=C(Cn1nc(C(F)F)cc1C(F)F)N1CCC(c2nc(C3=NOC(c4c(O)cccc4Cl)C3)cs2)CC1` (stereo not drawn) [I-54, 2-[3,5-Bis(difluoromethyl)-1H-pyrazol-1-yl]-1-(4-{4-[5-(2-chloro-6-hydroxyphenyl)-4,5-dihydro-1,2-oxazol-3-yl]-1,3-thiazol-2-yl}piperidin-1-yl)ethanone], for which the chromatographic logP was found to be 2.94 (pH 2.7, log P (HCOOH)) and 2.94 (pH 2.7, logp [b]).

Compound `O=C(OCC1CC1)c1ccccc1C1CC(c2csc(C3CCN(C(=O)Cn4nc(C(F)F)cc4C(F)F)CC3)n2)=NO1` (stereo not drawn) [I-13, Cyclopropylmethyl 2-{3-[2-(1-{[3,5-bis(difluoromethyl)-1H-pyrazol-1-yl]acetyl}piperidin-4-yl)-1,3-thiazol-4-yl]-4,5-dihydro-1,2-oxazol-5-yl}benzoate] had a chromatographic logP (pH 2.7, logp [b]) of 3.99 and a chromatographic logP (pH 7.8, logp [c]) of 3.92.

`CC(C)(C)OC(=O)N1CCC(F)(c2nc(C3=NOC(c4ccccc4)C3)cs2)CC1` (stereo not drawn) [X-a-1, tert-Butyl 4-fluoro-4-[4-(5-phenyl-4,5-dihydro-1,2-oxazol-3-yl)-1,3-thiazol-2-yl]piperidine-1-carboxylate] showed a chromatographic logP (pH 2.7, log P (HCOOH)) of 4.28.

Turning to `O=C(Cn1nc(C(F)F)cc1C(F)F)N1CCC(c2nc(C3=NOC(c4ccccc4OCC4CCCCC4)C3)cs2)CC1` (stereo not drawn) [I-24, 2-[3,5-Bis(difluoromethyl)-1H-pyrazol-1-yl]-1-[4-(4-{5-[2-(cyclohexylmethoxy)phenyl]-4,5-dihydro-1,2-oxazol-3-yl}-1,3-thiazol-2-yl)piperidin-1-yl]ethanone], the chromatographic logP is, setting by setting: (pH 2.3) 4.9; (pH 7.8) 4.9.

On to `COC(=O)c1ccccc1C1CC(c2nc(C3CCN(C(=O)Cn4nc(C(F)F)cc4C(F)F)CC3)sc2Cl)=NO1` (stereo not drawn) [I-46, methyl 2-{3-[2-(1-{[3,5-bis(difluoromethyl)-1H-pyrazol-1-yl]acetyl}piperidin-4-yl)-5-chloro-1,3-thiazol-4-yl]-4,5-dihydro-1,2-oxazol-5-yl}benzoate], for which the chromatographic logP (pH 2.7, logp [b]) worked out at 3.98.

In turn, `CC(C)(C)OC(=O)N1CCC(c2nc(C3=NOC(c4ccccc4OCC4CCCCC4)C3)cs2)CC1` (stereo not drawn) [X-a-7, tert-butyl 4-(4-{5-[2-(cyclohexylmethoxy)phenyl]-4,5-dihydro-1,2-oxazol-3-yl}-1,3-thiazol-2-yl)piperidine-1-carboxylate] returned a chromatographic logP (pH 2.7, log P (pH2.7)) of 6.3.

Where the note is “pH 2.7, log P (HCOOH)”, `CS(=O)(=O)Nc1ccccc1C1CC(c2csc(C3CCNCC3)n2)=NO1` (stereo not drawn) [XII-4, 4-[4-(5-{2-[(Methylsulphonyl)amino]phenyl}-4,5-dihydro-1,2-oxazol-3-yl)-1,3-thiazol-2-yl]piperidinium chloride] showed a chromatographic logP of 0.72.

As to `CC(C)(C)OC(=O)N1CCC(c2nc(C3=NOC(c4ccccc4O)C3)cs2)CC1` (stereo not drawn) [X-a-5, tert-Butyl 4-{4-[5-(2-hydroxyphenyl)-4,5-dihydro-1,2-oxazol-3-yl]-1,3-thiazol-2-yl}piperidine-1-carboxylate], the chromatographic logP (pH 2.7, log P (pH2.7)) is 3.22.

Where the note is “pH 2.7, logp [b]”, `COCCOc1cccc(Cl)c1C1CC(c2csc(C3CCN(C(=O)Cn4nc(C(F)F)cc4C(F)F)CC3)n2)=NO1` (stereo not drawn) [I-50, 2-[3,5-bis(difluoromethyl)-1H-pyrazol-1-yl]-1-[4-(4-{5-[2-chloro-6-(2-methoxyethoxy)phenyl]-4,5-dihydro-1,2-oxazol-3-yl}-1,3-thiazol-2-yl)piperidin-1-yl]ethanone] displayed a chromatographic logP of 3.36.

Consider `O=C(Cn1nc(C(F)F)cc1C(F)F)N1CCC(c2nc(C3=NOC(c4ccccc4CCl)C3)cs2)CC1` (stereo not drawn) [I-44, 2-[3,5-Bis(difluoromethyl)-1H-pyrazol-1-yl]-1-[4-(4-{5-[2-(chloromethyl)phenyl]-4,5-dihydro-1,2-oxazol-3-yl}-1,3-thiazol-2-yl)piperidin-1-yl]ethanone], for which the chromatographic logP (pH 2.7, logp [b]) came out at 3.36.

In turn, `Oc1ccccc1C1CC(c2csc(C3CCNCC3)n2)=NO1` (stereo not drawn) [XII-5, 4-{4-[5-(2-Hydroxyphenyl)-4,5-dihydro-1,2-oxazol-3-yl]-1,3-thiazol-2-yl}piperidinium chloride] showed a chromatographic logP (pH 2.7, log P (pH2.7)) of 0.69.
